# Measured values reported in patent publication US20110195845A1, “Constructs for Expressing Herbicide Tolerance Genes, Related Plants, and Related Trait Combinations” (Dow AgroSciences LLC, priority 2008, published 2011).
# Experiments:
# [1] = system: DSM-2 (v2) gene + AAD-12 transformed T1 Arabidopsis; assay: T1 Arabidopsis response to glufosinate applied postemergence; assay type: in vivo, Arabidopsis thaliana; settings: for % Injury Ave / individuals with % Injury 20-40% / individuals with % Injury <20% / individuals with % Injury >40%: 2 WAT
# Description: (§1) Seven days after planting (DAP) and again 11 DAP, T1 plants (cotyledon and 2-4-1f stage, respectively) were sprayed with a 0.016% solution of 2,4-D herbicide (456 g ae/L 2,4-D Amine 4, Dow AgroSciences LLC, Indianapolis, Ind.) at a spray volume of 10 ml/tray (703 L/ha) using a DeVilbiss compressed air spray tip to deliver an effective rate of 50 g ae/ha 2,4-D DMA per application. Survivors (plants actively growing) were identified 4-7 days after the final spraying and transplanted individually into 3-inch pots prepared with potting media (Metro Mix 360). Transplanted plants were covered with humidity domes for 3-4 days and placed in a 22° C. growth chamber as before or moved to directly to the greenhouse. Domes were subsequently removed and plants reared in the greenhouse (22±5° C., 50±30% RH, 14 h light:10 dark, minimum 500 μE/m^2s^1 natural+supplemental light) at least 1 day prior to testing for the ability of DSM-2 (v2) to provide glufosinate herbicide resistance.
# (§2) T1 plants were then randomly assigned to various rates of glufosinate. For Arabidopsis 140 g ai/ha glufosinate is an effective dose to distinguish sensitive plants from ones with meaningful levels of resistance. Elevated rates were also applied to determine relative levels of resistance (280, 560, or 1120 g ai/ha).
# (§3) All glufosinate herbicide applications were applied by track sprayer in a 187 L/ha spray volume. The commercial Liberty™ formulation (200 g ai/L, Bayer Crop Science, Research Triangle Park, N.C.).
# (§4) The first Arabidopsis transformations were conducted using DSM-2 (v2) (plant optimized gene). T1 transformants were first selected from the background of untransformed seed using a 2,4-D DMA selection scheme. Over 100,000 T1 seed were screened and 260 2,4-D resistant plants (AAD-12 gene) were identified, equating to a transformation/selection frequency of 0.26% which is slightly higher than the normal range of selection frequency of constructs where AAD-12+2,4-D are used for selection. T1 plants selected above were subsequently transplanted to individual pots and sprayed with various rates of commercial glufosinate herbicide. Table 10 compares the response of DSM-2 (v2) and control genes to impart glufosinate resistance to Arabidopsis T1 transformants. Response is presented in terms of % visual injury 2 WAT. […] Since each T1 is an independent transformation event, one can expect significant variation of individual T1 responses within a given rate. An arithmetic mean and standard deviation is presented for each treatment. Untransformed-wildtype Arabidopsis served as a glufosinate sensitive control. The DSM-2 (v2) gene imparted herbicide resistance to individual T1 Arabidopsis plants. Within a given treatment, the level of plant response varied greatly and can be attributed to the fact each plant represents an independent transformation event. Of important note, at above 140 g ai/ha glufosinate, there were individuals that were unaffected while some were severely affected.
# [2] = system: PAT gene + AAD-12 transformed T1 Arabidopsis; assay: as above; assay type: in vivo, Arabidopsis thaliana; settings: 2 WAT
# Description: as §1, §2, §3, §4
# [3] = system: Escherichia coli BL21-Star (DE3) with empty pET vector; assay: Complementation of cell growth on glufosinate, empty pET vector (control); assay type: cell-based; design: key: +++ = Heavy Lawn Growth; ++ = Light lawn growth; + = patchy lawn growth; −− = No Growth; settings: 24 hrs @28 C, 20 uM IPTG
# From the text: A pET28a(+) expression plasmid containing PAT (v3) was constructed as a positive control. PAT (v3) was cloned as an NcoI-SacI fragment into corresponding restriction sites of pDAB779. Positive clones containing the PAT (v3) gene fragment were verified via restriction enzyme digestion. This construct was labeled as pDAB4434.
# The plasmids, pDAB4434, pDAB4412, and an empty pET vector (control) were transformed into Escherichia coli BL21-Star (DE3) bacterial cells. Expression cultures were initiated with 10-200 freshly transformed colonies into 250 mL LB medium containing 50 μg/ml antibiotic and 75 μM IPTG (isopropyl-[…]). The cultures were grown at 28° C. for 24 hours at 180-200 rpm. Five microliters of the culture was inoculated onto a complex media control and minimal media containing incrementally increasing concentrations of glufosinate and 20 μM IPTG. The cultures were dispersed evenly over the plates and incubated at 28° C. for 24 hours.
# [4] = system: DSM-2 v2 (pDAS1941) T2 corn; assay: T2 corn response to glufosinate applied postemergence; assay type: in vivo; settings: for % Injury Ave / individuals with % Injury 20-40% / individuals with % Injury <20% / individuals with % Injury >40%: 14DAT
# From the text: The seed from the cross of T1 DSM-2 (v2)×5× H751 were planted into 4-inch pots containing Metro Mix media and at 2 leaf stage were sprayed in the track sprayer set to 187 L/ha at 560 g ai/ha glufosinate to remove nulls. At 7 DAT nulls were removed and resistant plants were sprayed in the track sprayer as above at the following rates: 0, 560, 1120, 2240, and 4480 g ai/ha glufosinate. Plants were graded at 3 and 14 DAT and compared to 5× H751× Hi II control plants.
# [5] = 140 g ai/ha glufosinate postemergence
# [6] = 280 g ai/ha glufosinate postemergence
# [7] = 560 g ai/ha glufosinate postemergence
# [8] = 1120 g ai/ha glufosinate postemergence
# [9] = 2240 g ai/ha glufosinate postemergence
# [10] = 4480 g ai/ha glufosinate postemergence
smiles,measurement,setting,value
CP(=O)(O)CCC(N)C(=O)O (stereo not shown) [glufosinate],% Injury Ave,[1]; [5],0.0%
same,individuals with % Injury 20-40%,[1]; [5],0
same,individuals with % Injury <20%,[1]; [5],20
same,individuals with % Injury >40%,[1]; [5],0
same,% Injury Ave,[1]; [6],3.0%
same,individuals with % Injury 20-40%,[1]; [6],1
same,individuals with % Injury <20%,[1]; [6],19
same,individuals with % Injury >40%,[1]; [6],0
same,% Injury Ave,[1]; [7],6.0%
same,individuals with % Injury 20-40%,[1]; [7],0
same,individuals with % Injury <20%,[1]; [7],19
same,individuals with % Injury >40%,[1]; [7],1
same,% Injury Ave,[1]; [8],13.0%
same,individuals with % Injury 20-40%,[1]; [8],1
same,individuals with % Injury <20%,[1]; [8],17
same,individuals with % Injury >40%,[1]; [8],2
same,injury of surviving individuals,"[1]; 1,120 g ai/ha glufosinate, many individuals",little or no injury
same,% Injury Ave,[2]; [5],0.0%
same,individuals with % Injury 20-40%,[2]; [5],0
same,individuals with % Injury <20%,[2]; [5],10
same,individuals with % Injury >40%,[2]; [5],0
same,% Injury Ave,[2]; [6],0.0%
same,individuals with % Injury 20-40%,[2]; [6],0
same,individuals with % Injury <20%,[2]; [6],10
same,individuals with % Injury >40%,[2]; [6],0
same,% Injury Ave,[2]; [7],0.0%
same,individuals with % Injury 20-40%,[2]; [7],0
same,individuals with % Injury <20%,[2]; [7],10
same,individuals with % Injury >40%,[2]; [7],0
same,% Injury Ave,[2]; [8],3.0%
same,individuals with % Injury 20-40%,[2]; [8],0
same,individuals with % Injury <20%,[2]; [8],10
same,individuals with % Injury >40%,[2]; [8],0
same,bacterial growth on minimal media,[3]; 250 μg/ml BASTA,−−
same,bacterial growth on minimal media,[3]; 500 μg/ml BASTA,−−
same,bacterial growth on minimal media,[3]; 1000 μg/ml BASTA,−−
same,bacterial growth on minimal media,[3]; 2000 μg/ml BASTA,−−
same,bacterial growth on minimal media,[3]; 4000 μg/ml BASTA,−−
same,% Injury Ave,[4]; [7],6%
same,individuals with % Injury 20-40%,[4]; [7],0
same,individuals with % Injury <20%,[4]; [7],4
same,individuals with % Injury >40%,[4]; [7],0
same,% Injury Ave,[4]; [8],18%
same,individuals with % Injury 20-40%,[4]; [8],2
same,individuals with % Injury <20%,[4]; [8],2
same,individuals with % Injury >40%,[4]; [8],0
same,% Injury Ave,[4]; [9],21%
same,individuals with % Injury 20-40%,[4]; [9],3
same,individuals with % Injury <20%,[4]; [9],1
same,individuals with % Injury >40%,[4]; [9],0
same,% Injury Ave,[4]; [10],29%
same,individuals with % Injury 20-40%,[4]; [10],4
same,individuals with % Injury <20%,[4]; [10],0
same,individuals with % Injury >40%,[4]; [10],0
same,injury of individual plants,[4]; up to 2240 g ai/ha glufosinate,less than 20%
